Measurements published in PMC8147360, “AGMO Inhibitor Reduces 3T3-L1 Adipogenesis” (Cells, 2021).

Experiments:
[1] = biological target: T1, Alkylglycerol monooxygenase (AGMO) (Rattus norvegicus, UniProt A0JPQ8); experiment: HPLC fluorescence activity assay with 1-O-pyrenedecyl-sn-glycerol in rat liver microsomes, coupled to FALDH (FALDH not inhibited); format: biochemical
T1 construct: native enzyme in rat liver microsomes
T1 sequence (A0JPQ8 1-447): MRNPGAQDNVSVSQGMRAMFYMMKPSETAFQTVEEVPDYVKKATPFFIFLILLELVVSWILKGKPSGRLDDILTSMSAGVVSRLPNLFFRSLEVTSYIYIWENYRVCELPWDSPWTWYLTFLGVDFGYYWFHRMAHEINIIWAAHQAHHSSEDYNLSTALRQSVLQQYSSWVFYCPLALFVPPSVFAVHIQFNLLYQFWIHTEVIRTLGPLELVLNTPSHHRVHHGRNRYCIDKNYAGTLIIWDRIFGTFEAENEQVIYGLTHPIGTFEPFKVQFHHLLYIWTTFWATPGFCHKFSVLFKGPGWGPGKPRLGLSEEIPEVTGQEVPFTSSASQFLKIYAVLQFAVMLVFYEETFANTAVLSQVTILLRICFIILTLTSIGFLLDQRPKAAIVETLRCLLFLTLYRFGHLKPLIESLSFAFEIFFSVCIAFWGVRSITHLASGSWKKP

[2] = biological target: T2, phenylalanine hydroxylase (PAH) (Rattus norvegicus, UniProt P04176); experiment: HPLC tyrosine fluorescence assay with purified recombinant PAH; format: biochemical
T2 construct: rat PAH maltose fusion protein, expressed in E. coli
T2 sequence (P04176 2-453): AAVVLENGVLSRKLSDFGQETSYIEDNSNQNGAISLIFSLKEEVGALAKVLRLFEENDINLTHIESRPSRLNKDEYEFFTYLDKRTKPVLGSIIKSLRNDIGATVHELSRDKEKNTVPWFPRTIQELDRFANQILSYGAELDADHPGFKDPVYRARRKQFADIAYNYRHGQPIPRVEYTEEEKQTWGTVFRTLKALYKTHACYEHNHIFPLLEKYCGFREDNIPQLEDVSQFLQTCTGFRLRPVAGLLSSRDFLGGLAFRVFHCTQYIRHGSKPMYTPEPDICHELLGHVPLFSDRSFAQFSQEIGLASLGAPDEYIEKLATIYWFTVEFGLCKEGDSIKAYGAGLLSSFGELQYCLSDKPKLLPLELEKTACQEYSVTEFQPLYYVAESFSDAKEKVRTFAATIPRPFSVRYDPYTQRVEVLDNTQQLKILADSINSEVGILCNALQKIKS

CC1Nc2nc(N(C)C)[nH]c(=O)c2NC1C (centres unmarked) [compound 6, 2-(dimethylamino)-6,7-dimethyl-5,6,7,8-tetrahydro-4(3H)-pteridinone] showed an IC50 [1] of about 50 µM and an IC50 [2] of 360 to 430 µM.
